Reference: patent US20230398130A1, “METHODS AND COMPOSITIONS FOR DIFFERENTIATING STEM CELLS” (Massachusetts Institute of Technology, priority 2020, published 2023)

What was measured:
[1] = tested on: ISC-enriched organoids; assay: Primary screen, 384-well 2.5-D organoid differentiation (ENR+CD, 6 days): basal lysozyme secretion (LYZ.NS); assay type: cell-based, murine; conditions: for Dose.FC.LYZ.NS / Z.LYZ.NS (standard z score) / Dose.FC.LYZ.NS (log 2 fold change): primary screen; for Dose.FC.LYZ.NS: FC vs plate median; for Z.LYZ.NS: standard z score of FC; for Dose.FC.LYZ.NS (log 2 fold change): vs plate median
Description: (§1) High-throughput screening.

[2] = tested on: ISC-enriched organoids; assay: Secondary (validation) screen, 384-well 2.5-D, ENR+CD 6 days, n=8 wells, vs ENR+CD+DMSO control: ATP (CTG); assay type: cell-based, murine; set-up: key to Dose.FC.CTG: log10 fold change vs median of vehicle control wells
Procedure: (§2) Drugs were tested at a narrowed dose range around each treatment's identified optimal dose from the primary screen (4× below, 2× above and below).
as §1
(§3) Secondary lysozyme secretion assay screen. Confirmatory secondary screening with primary hits was performed using the above 384-well plate method. The screen was conducted with 4-plate replicates with a base media of ENR+CD. Media was supplemented with compound at day 0 and day 3 (n=8 well replicates per dose) at four different doses: two-fold above, two-fold below, and four-fold below the optimal final dose for each respective treatment. Additionally, each plate carried a large number of ENR+DMSO or ENR+CD+DMSO (vehicle) control wells (n=100 for ATP, and n=25 for LYZ.NS and LYZ.S) for robust normalization. ATP, non-stimulated lysozyme activity and CCh-stimulated lysozyme activity was again measured and the collected data was again processed in a custom R-script, per primary screen with slight modification. Values were log10 transformed, and a plate-wise FC was calculated for each well based on the median value of ENR+CD+DMSO (vehicle) control wells to normalize plate to plate variability.

[3] = tested on: ISC-enriched organoids; assay: Primary screen, 384-well 2.5-D organoid differentiation (ENR+CD, 6 days, Target Selective Inhibitor Library, vs whole-plate median): ATP (CellTiter-Glo 3D, CTG); conditions: for Dose.FC.CTG / Z.CTG (standard z score) / Dose.FC.CTG (log 2 fold change): primary screen; for Dose.FC.CTG: FC vs plate median; for Z.CTG: standard z score of FC; for Dose.FC.CTG (log 2 fold change): vs plate median
[4] = tested on: ISC-enriched organoids; assay: Secondary (validation) screen, 384-well 2.5-D, ENR+CD 6 days, n=8 wells, vs ENR+CD+DMSO control: basal lysozyme secretion (LYZ.NS); assay type: cell-based, murine; set-up: key to Dose.FC.LYZ.NS: log10 fold change vs median of vehicle control wells
Procedure: as §2, §1, §3

[5] = tested on: ISC-enriched organoids; assay: Secondary (validation) screen, 384-well 2.5-D, ENR+CD 6 days, n=8 wells, vs ENR+CD+DMSO control: carbachol-induced lysozyme secretion (LYZ.S); assay type: cell-based, murine
Procedure: as §2, §1, §3

[6] = tested on: ISC-enriched organoids; assay: Primary screen, 384-well 2.5-D organoid differentiation (ENR+CD, 6 days): carbachol-induced lysozyme secretion (LYZ.S); assay type: cell-based, murine; conditions: primary screen; for Dose.FC.LYZ.S: FC vs plate median; for Dose.FC.LYZ.S (log 2 fold change): vs plate median
Description: as §1

CCc1cncnc1N1CCN(Cc2nc3ccc(C(F)(F)F)cc3[nH]2)CC1 [PF-4708671]
Dose.FC.LYZ.NS ([1]; Dose 0.08 uM): 0.075 log 2 fold change | Z.LYZ.NS ([1]; Dose 0.08 uM): 0.654 | Dose.FC.LYZ.NS ([1]; Dose 0.40 uM): 0.122 log 2 fold change | Z.LYZ.NS ([1]; Dose 0.40 uM): 1.059 | Dose.FC.LYZ.NS ([1]; Dose 2.00 uM): 0.198 log 2 fold change | Z.LYZ.NS ([1]; Dose 2.00 uM): 1.721 | Dose.FC.LYZ.NS ([1]; Dose 10.00 uM): 0.034 log 2 fold change | Z.LYZ.NS ([1]; Dose 10.00 uM): 0.297 | Dose.FC.CTG ([2]; Dose 0.50 uM): −0.049 | Z.CTG ([2]; Dose 0.50 uM): −0.443 | repSSMD.CTG ([2]; Dose 0.50 uM): −0.324 | Dose.FC.CTG ([2]; Dose 1.00 uM): −0.039 | Z.CTG ([2]; Dose 1.00 uM): −0.354 | repSSMD.CTG ([2]; Dose 1.00 uM): −0.284 | Dose.FC.CTG ([2]; Dose 4.00 uM): 0.067 | Z.CTG ([2]; Dose 4.00 uM): 0.601 | repSSMD.CTG ([2]; Dose 4.00 uM): 0.414 | Dose.FC.CTG ([2]; dose 2.00 uM): −0.076 | Z.CTG ([2]; dose 2.00 uM): −0.684 | repSSMD.CTG ([2]; dose 2.00 uM): −0.558 | Dose.FC.CTG ([3]; Dose 0.08 uM): 0.261 log 2 fold change | Z.CTG ([3]; Dose 0.08 uM): 0.623 | Dose.FC.CTG ([3]; Dose 0.40 uM): 0.268 log 2 fold change | Z.CTG ([3]; Dose 0.40 uM): 0.640 | Dose.FC.CTG ([3]; Dose 2.00 uM): 0.302 log 2 fold change | Z.CTG ([3]; Dose 2.00 uM): 0.721 | Dose.FC.CTG ([3]; Dose 10.00 uM): −0.321 log 2 fold change | Z.CTG ([3]; Dose 10.00 uM): −0.766 | Dose.FC.LYZ.NS ([4]; Dose 0.50 uM): 0.005 | Z.LYZ.NS ([4]; Dose 0.50 uM): 0.039 | repSSMD.LYZ.NS ([4]; Dose 0.50 uM): 0.058 | Dose.FC.LYZ.NS ([4]; Dose 1.00 uM): −0.200 | Z.LYZ.NS ([4]; Dose 1.00 uM): −1.600 | repSSMD.LYZ.NS ([4]; Dose 1.00 uM): −1.909 | Dose.FC.LYZ.NS ([4]; Dose 4.00 uM): 0.015 | Z.LYZ.NS ([4]; Dose 4.00 uM): 0.120 | repSSMD.LYZ.NS ([4]; Dose 4.00 uM): 0.171 | Dose.FC.LYZ.NS ([4]; dose 2.00 uM): −0.221 | Z.LYZ.NS ([4]; dose 2.00 uM): −1.764 | repSSMD.LYZ.NS ([4]; dose 2.00 uM): −2.529 | Z.LYZ.S ([5]; Dose 0.50 uM): −0.305 | log10 fold change in stimulated lysozyme secretion vs vehicle control ([5]; Dose 0.50 uM): −0.040 | repSSMD.LYZ.S ([5]; Dose 0.50 uM): −0.496 | Z.LYZ.S ([5]; Dose 1.00 uM): −1.879 | log10 fold change in stimulated lysozyme secretion vs vehicle control ([5]; Dose 1.00 uM): −0.245 | repSSMD.LYZ.S ([5]; Dose 1.00 uM): −2.451 | Z.LYZ.S ([5]; Dose 4.00 uM): −0.320 | log10 fold change in stimulated lysozyme secretion vs vehicle control ([5]; Dose 4.00 uM): −0.042 | repSSMD.LYZ.S ([5]; Dose 4.00 uM): −0.503 | Z.LYZ.S ([5]; dose 2.00 uM): −2.088 | log10 fold change in stimulated lysozyme secretion vs vehicle control ([5]; dose 2.00 uM): −0.272 | repSSMD.LYZ.S ([5]; dose 2.00 uM): −3.604 | Dose.FC.LYZ.S ([6]; Dose 0.08 uM): 0.136 log 2 fold change | Dose.FC.LYZ.S ([6]; Dose 0.40 uM): 0.172 log 2 fold change | Dose.FC.LYZ.S ([6]; Dose 2.00 uM): 0.209 log 2 fold change | Dose.FC.LYZ.S ([6]; Dose 10.00 uM): −0.024 log 2 fold change

NC(=O)c1ccc(-c2nc(-c3ccccn3)c(-c3ccc4c(c3)OCO4)[nH]2)cc1 [SB431542]
Z.LYZ.NS (standard z score) ([1]; Dose 0.08 uM): 1.225 | Dose.FC.LYZ.NS (log 2 fold change) ([1]; Dose 0.08 uM): 0.141 | Z.LYZ.NS (standard z score) ([1]; Dose 0.40 uM): 1.514 | Dose.FC.LYZ.NS (log 2 fold change) ([1]; Dose 0.40 uM): 0.174 | Z.LYZ.NS (standard z score) ([1]; Dose 2.00 uM): 1.632 | Dose.FC.LYZ.NS (log 2 fold change) ([1]; Dose 2.00 uM): 0.187 | Z.LYZ.NS (standard z score) ([1]; Dose 10.00 uM): 0.346 | Dose.FC.LYZ.NS (log 2 fold change) ([1]; Dose 10.00 uM): 0.040 | Dose.FC.CTG ([2]; Dose 0.06 uM): 0.160 | Z.CTG ([2]; Dose 0.06 uM): 1.439 | repSSMD.CTG ([2]; Dose 0.06 uM): 0.654 | Dose.FC.CTG ([2]; Dose 0.24 uM): 0.023 | Z.CTG ([2]; Dose 0.24 uM): 0.206 | repSSMD.CTG ([2]; Dose 0.24 uM): 0.141 | Dose.FC.CTG ([2]; Dose 0.48 uM): 0.083 | Z.CTG ([2]; Dose 0.48 uM): 0.752 | repSSMD.CTG ([2]; Dose 0.48 uM): 0.527 | Dose.FC.CTG ([2]; Dose […]): 0.120 | Z.CTG (standard z score) ([3]; Dose 0.08 uM): 0.907 | Dose.FC.CTG (log 2 fold change) ([3]; Dose 0.08 uM): 0.380 | Z.CTG (standard z score) ([3]; Dose 0.40 uM): 1.130 | Dose.FC.CTG (log 2 fold change) ([3]; Dose 0.40 uM): 0.473 | Z.CTG (standard z score) ([3]; Dose 2.00 uM): 0.754 | Dose.FC.CTG (log 2 fold change) ([3]; Dose 2.00 uM): 0.316 | Z.CTG (standard z score) ([3]; Dose 10.00 uM): 0.370 | Dose.FC.CTG (log 2 fold change) ([3]; Dose 10.00 uM): 0.155 | Dose.FC.LYZ.NS ([4]; Dose 0.06 uM): 0.089 | Z.LYZ.NS ([4]; Dose 0.06 uM): 0.709 | repSSMD.LYZ.NS ([4]; Dose 0.06 uM): 1.073 | Dose.FC.LYZ.NS ([4]; Dose 0.24 uM): 0.105 | Z.LYZ.NS ([4]; Dose 0.24 uM): 0.838 | repSSMD.LYZ.NS ([4]; Dose 0.24 uM): 0.830 | Dose.FC.LYZ.NS ([4]; Dose 0.48 uM): −0.016 | Z.LYZ.NS ([4]; Dose 0.48 uM): −0.128 | repSSMD.LYZ.NS ([4]; Dose 0.48 uM): −0.149 | Dose.FC.LYZ.NS ([4]; Dose […]): 0.116 | Z.LYZ.S ([5]; Dose 0.06 uM): 0.514 | log10 fold change in stimulated lysozyme secretion vs vehicle control ([5]; Dose 0.06 uM): 0.067 | repSSMD.LYZ.S ([5]; Dose 0.06 uM): 0.855 | Z.LYZ.S ([5]; Dose 0.24 uM): 0.211 | log10 fold change in stimulated lysozyme secretion vs vehicle control ([5]; Dose 0.24 uM): 0.027 | repSSMD.LYZ.S ([5]; Dose 0.24 uM): 0.301 | Z.LYZ.S ([5]; Dose 0.48 uM): −0.387 | log10 fold change in stimulated lysozyme secretion vs vehicle control ([5]; Dose 0.48 uM): −0.050 | repSSMD.LYZ.S ([5]; Dose 0.48 uM): −0.449 | log10 fold change in stimulated lysozyme secretion vs vehicle control ([5]; Dose […]): 0.072 | Dose.FC.LYZ.S (log 2 fold change) ([6]; Dose 0.08 uM): 0.135 | Dose.FC.LYZ.S (log 2 fold change) ([6]; Dose 0.40 uM): 0.309 | Dose.FC.LYZ.S (log 2 fold change) ([6]; Dose 2.00 uM): 0.223 | Dose.FC.LYZ.S (log 2 fold change) ([6]; Dose 10.00 uM): 0.126
